Test results reported in US6706663B2, “Herbicidal 3-heterocyclic substituted benzisothiazole and benzisoxazole compounds” (Wyeth, priority 2000, dated 2004).

Key:
[1] = tested on: ABUTH (Abutilon theophrasti); assay: Postemergence herbicidal evaluation; assay type: in vivo, Medic.; settings: postemergence
Outline: (§1)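 Visual 0–9 injury scores versus control plants, covering stand, vigour, malformation, size, chlorosis and general appearance, taken four to five weeks post-spray and averaged over replicate tests. Plants were sprayed at roughly two weeks old and held on greenhouse benches.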

GALAP (Galium aparine) [2] = assay: Postemergence herbicidal evaluation; assay type: in vivo; settings: postemergence
Outline: as §1

[3] = tested on: IPOHE (Ipomoea hederacea); assay: Postemergence herbicidal evaluation; assay type: in vivo, (L.) Jacq.; settings: postemergence
Outline: as §1

SETVI (Setaria viridis) [4] = assay: Postemergence herbicidal evaluation; assay type: in vivo, (L.) Beau; settings: postemergence
Outline: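 ~2-wk seedlings; spray 0.0040–1.000 kg/ha in 50/50 acetone/water + 0.5% TWEEN 20, 40 psi nozzle. Greenhouse hold; visual 0–9 rating vs control at 4–5 wk; multiple tests averaged.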

[5] = tested on: GLXMAW (Soybean, Williams); assay: Postemergence herbicidal evaluation; assay type: in vivo, Glycine max, (L.) Merr. cv Williams; settings: postemergence
Outline: as §1

[6] = tested on: TRZAWR (Wheat, Winter, cv Riband); assay: Postemergence herbicidal evaluation; assay type: in vivo, Triticum aestivum; settings: postemergence
Outline: as §1

[7] = tested on: ABUTH (Abutilon theophrasti); assay: Preemergence herbicidal evaluation; assay type: in vivo, Medic.; settings: rated 4-5 weeks after treatment
[8] = tested on: AMBEL (Ambrosia artemisifolia); assay: Preemergence herbicidal evaluation; assay type: in vivo, L.; settings: rated 4-5 weeks after treatment
Outline: (§2)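 Rating 0–9, visual, vs control; 4–5 wk after spraying seeded cups with compound in aq. acetone; conventional greenhouse care.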

[9] = tested on: CASOB (Cassia obtusifolia); assay: Preemergence herbicidal evaluation; assay type: in vivo, L.; settings: rated 4-5 weeks after treatment
Outline: as §2

[10] = tested on: CHEAL (Chenopodium album); assay: Preemergence herbicidal evaluation; assay type: in vivo, L.; settings: rated 4-5 weeks after treatment
Outline: as §2

GALAP (Galium aparine) [11] = assay: Preemergence herbicidal evaluation; assay type: in vivo; settings: rated 4-5 weeks after treatment
Outline: as §2

[12] = tested on: ECHCG (Echinochloa crus-galli); assay: Preemergence herbicidal evaluation; assay type: in vivo, (L.) Beau; settings: rated 4-5 weeks after treatment
Outline: as §2

SETVI (Setaria viridis) [13] = assay: Preemergence herbicidal evaluation; assay type: in vivo, (L.) Beau; settings: rated 4-5 weeks after treatment
Outline: as §2

ZEAMX (Corn, Field) = assay: Preemergence herbicidal evaluation; assay type: in vivo, Zea mays, L.; settings: rated 4-5 weeks after treatment
[14] = tested on: MOOVA (Monochoria vaginalis); assay: Flooded paddy, preemergence weed control; assay type: in vivo, Presl.; settings: rated 3-4 weeks after treatment, 0-9 rating scale
Outline: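 In this preemergence paddy assay, weed seeds or organs are sown at up to 0.5 cm in silt loam and covered by 1.5–3 cm of water for the full test period. After treatment the pots are kept in a greenhouse, and herbicidal effect is rated 0-9 visually against a control.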

ORYSAT (Rice, Tebonnet) = assay: Flooded paddy, post-transplant rice tolerance; assay type: in vivo, Oryza sativa, (L.) Tebonnet; settings: flooded paddy, post-transplant rice, rated 3-4 weeks after treatment, 0-9 rating scale
Outline: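 Scores (0-9) reflect visual injury relative to untreated plants in flooded silt loam. Each pot held two transplanted ten-day-old seedlings under 1.5 to 3 cm standing water in the greenhouse.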

In the case of Cn1c(C(F)(F)F)cc(=O)n(-c2cc3c(C4OCCCO4)nsc3cc2F)c1=O [Compound 62, 3-(3-m-dioxan-2-yl-6-fluoro-1,2-benzisothiazol-5-yl)-1-methyl-6-(trifluoromethyl)uracil], the ABUTH herbicidal rating ([1]; rate 0.0320 kg/ha) is reported as 9.0, the ABUTH herbicidal rating ([1]; rate 0.0620 kg/ha) is reported as 9.0 and the GALAP herbicidal rating (GALAP (Galium aparine) [2]; rate 0.0320 kg/ha) is reported as 9.0. For the same molecule, the GALAP herbicidal rating (GALAP (Galium aparine) [2]; rate 0.0620 kg/ha) was 9.0, the IPOHE herbicidal rating ([3]; rate 0.0320 kg/ha) was 9.0 and the IPOHE herbicidal rating ([3]; rate 0.0620 kg/ha) was 9.0. For the same molecule, the SETVI herbicidal rating (SETVI (Setaria viridis) [4]; rate 0.0320 kg/ha) was 9.0, the SETVI herbicidal rating (SETVI (Setaria viridis) [4]; rate 0.0620 kg/ha) was 9.0 and the GLXMAW herbicidal rating ([5]; rate 0.0320 kg/ha) was 9.0. The GLXMAW herbicidal rating ([5]; rate 0.0620 kg/ha) was 9.0, the TRZAWR herbicidal rating ([6]; rate 0.0320 kg/ha) was 6.5 and the TRZAWR herbicidal rating ([6]; rate 0.0620 kg/ha) was 6.5. For the same molecule, the “Preemergence herbicidal rating ABUTH” value ([7]; Rate 0.0620 kg/ha) was 9.0, the “Preemergence herbicidal rating ABUTH” value ([7]; Rate 0.1250 kg/ha) was 9.0 and the “Preemergence herbicidal rating ABUTH” value ([7]; Rate 0.2500 kg/ha) was 9.0. For the same molecule, the “Preemergence herbicidal rating AMBEL” value ([8]; Rate 0.0620 kg/ha) was 9.0, the “Preemergence herbicidal rating AMBEL” value ([8]; Rate 0.1250 kg/ha) was 9.0 and the “Preemergence herbicidal rating AMBEL” value ([8]; Rate 0.2500 kg/ha) was 9.0. The “Preemergence herbicidal rating CASOB” value ([9]; Rate 0.0620 kg/ha) was 9.0, the “Preemergence herbicidal rating CASOB” value ([9]; Rate 0.1250 kg/ha) was 9.0 and the “Preemergence herbicidal rating CASOB” value ([9]; Rate 0.2500 kg/ha) was 9.0. For the same molecule, the “Preemergence herbicidal rating CHEAL” value ([10]; Rate 0.0620 kg/ha) was 9.0, the “Preemergence herbicidal rating CHEAL” value ([10]; Rate 0.1250 kg/ha) was 9.0 and the “Preemergence herbicidal rating CHEAL” value ([10]; Rate 0.2500 kg/ha) was 9.0. For the same molecule, the “Preemergence herbicidal rating GALAP” value (GALAP (Galium aparine) [11]; Rate 0.0620 kg/ha) was 9.0, the “Preemergence herbicidal rating GALAP” value (GALAP (Galium aparine) [11]; Rate 0.1250 kg/ha) was 9.0 and the “Preemergence herbicidal rating GALAP” value (GALAP (Galium aparine) [11]; Rate 0.2500 kg/ha) was 9.0. The “Preemergence herbicidal rating ECHCG” value ([12]; Rate 0.0620 kg/ha) was 9.0, the “Preemergence herbicidal rating ECHCG” value ([12]; Rate 0.1250 kg/ha) was 9.0 and the “Preemergence herbicidal rating ECHCG” value ([12]; Rate 0.2500 kg/ha) was 9.0. For the same molecule, the “Preemergence herbicidal rating SETVI” value (SETVI (Setaria viridis) [13]; Rate 0.0620 kg/ha) was 9.0, the “Preemergence herbicidal rating SETVI” value (SETVI (Setaria viridis) [13]; Rate 0.1250 kg/ha) was 9.0 and the “Preemergence herbicidal rating SETVI” value (SETVI (Setaria viridis) [13]; Rate 0.2500 kg/ha) was 9.0. The “Preemergence herbicidal rating ZEAMX” value (ZEAMX (Corn, Field); Rate 0.0620 kg/ha) was 9.0, the “Preemergence herbicidal rating ZEAMX” value (ZEAMX (Corn, Field); Rate 0.1250 kg/ha) was 9.0 and the “Preemergence herbicidal rating ZEAMX” value (ZEAMX (Corn, Field); Rate 0.2500 kg/ha) was 9.0. The “herbicidal rating, MOOVA” value ([14]; rate 0.0080 kg/ha) was 8.0, the “herbicidal rating, MOOVA” value ([14]; rate 0.0320 kg/ha) was 9.0 and the “herbicidal rating, MOOVA” value ([14]; rate 0.1250 kg/ha) was 9.0. The “herbicidal rating, ORYSAT (rice tolerance)” value (shortened to “herbicidal rating, ORYSAT”) (ORYSAT (Rice, Tebonnet); rate 0.0080 kg/ha) was 9.0, the “herbicidal rating, ORYSAT” value (ORYSAT (Rice, Tebonnet); rate 0.0320 kg/ha) was 9.0 and the “herbicidal rating, ORYSAT” value (ORYSAT (Rice, Tebonnet); rate 0.1250 kg/ha) was 9.0.
